This is an account of results in ChEMBL document CHEMBL1201862, “PubChem BioAssay data set” (2004).

Each structure is given as a SMILES string.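 All cell lines were grown in 96-well plates and treated with compound for 48 hours. Abbreviation: GI50, concentration required for 50% inhibition of growth.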 Activity calls are given as the source filed them. No stated cut-off is given here; in the data, active = GI50 up to about 1.1 µM and inactive = higher. Where only a bound is given, the exact number is not on record here.

Test systems include SW-620; Malme-3M; SNB-75; HOP-92; SN12C; SK-MEL-2; HT-29; OVCAR-5; NCI-H23; MDA-MB-435; UO-31; UACC-257; SNB-19; NCI-H522; T47D; OVCAR-8; MOLT-4; CCRF-CEM; HL-60; SR.
Holding throughout (assay): NCI-60 cell line screen, 48 h

With `CN(C)CCCN1C(=O)N(CCCN(C)C)c2c3cc(O)ccc3nc3c([N+](=O)[O-])ccc1c23`, the GI50 is 16 µM (inactive) in the assay with SW-620; 17.8 µM (inactive) in the assay with Malme-3M; 29.3 µM (inactive) in the assay with SNB-75; 4.82 µM (inactive) in the assay with HOP-92; 20 µM (inactive) in the assay on SN12C; 15.6 µM (inactive) in the assay on SK-MEL-2. Further, the GI50 in the assay on HT-29 was 11.8 µM (inactive); with OVCAR-5, 53.1 µM (inactive); in the assay with NCI-H23, 13 µM (inactive); in the assay with MDA-MB-435, 18 µM (inactive); with UO-31, 20.5 µM (inactive); with UACC-257, 30.8 µM (inactive). Besides, the GI50 is 10.9 µM (inactive) with SNB-19, 6.92 µM (inactive) in the assay with NCI-H522, 30.3 µM (inactive) in the assay on T47D and 15.8 µM (inactive) in the assay on OVCAR-8.
As for `COc1ccc(C2C=C(c3ccccc3)Nc3nnnn32)cc1` (centres undefined), the GI50 in the assay on SW-620 was 37.3 µM (inactive); with MOLT-4, > 100 µM (inactive); in the assay with CCRF-CEM, > 100 µM (inactive); in the assay on SN12C, > 100 µM (inactive); with SK-MEL-2, 38.7 µM (inactive); in the assay on HT-29, 18.1 µM (inactive). The GI50 was > 100 µM (inactive) in the assay on HL-60; 26.4 µM (inactive) in the assay on SR; 37.7 µM (inactive) with OVCAR-5; > 100 µM (inactive) in the assay with NCI-H23; 76.6 µM (inactive) in the assay with MDA-MB-435; 90.8 µM (inactive) in the assay with UO-31. In addition, the GI50 with UACC-257 is 98.4 µM (inactive); with SNB-19, 97.9 µM (inactive); in the assay on NCI-H522 it was 17.9 µM (inactive); in the assay with T47D, 19 µM (inactive); with OVCAR-8, 47.4 µM (inactive).
Consider `C/C(=N\Nc1nc2ccccc2s1)c1ncccn1`, for which the GI50 was < 0.0154 µM (active) in the assay on SW-620; < 0.01 µM (active) in the assay on MOLT-4; 0.1 µM (active) with CCRF-CEM; 0.0505 µM (active) in the assay with Malme-3M; 0.617 µM (active) in the assay on SNB-75; < 0.0276 µM (active) in the assay on HOP-92. Also, the GI50 in the assay on SN12C was < 0.0204 µM (active); in the assay on SK-MEL-2, 0.92 µM (active); in the assay with HT-29, < 0.01 µM (active); in the assay on HL-60, < 0.01 µM (active); with OVCAR-5, 0.415 µM (active); in the assay on NCI-H23 it was 0.0614 µM (active). Also, the GI50 with MDA-MB-435 was 0.363 µM (active); with UO-31, 0.022 µM (active); with UACC-257, < 0.0205 µM (active); with SNB-19, 0.316 µM (active); in the assay on NCI-H522, 0.0128 µM (active); with T47D, < 0.01 µM (active). Also, the GI50 with OVCAR-8 was < 0.016 µM (active).
As to `COC1/C=C(C)/C=C/C(C)/C=C/C(=O)OC(/C(C)=C/C=C(\C)CNC(=O)[C@H](CO)NC=O)C(C)/C=C/C=C/C(OC)CC/C=C(C)/C=C/C1` (some centres undefined), the GI50 is 0.0469 µM (active) with SW-620; 0.0206 µM (active) in the assay on MOLT-4; 0.0474 µM (active) with CCRF-CEM; 0.0863 µM (active) with Malme-3M; > 1 µM (active) in the assay with SNB-75; 0.0447 µM (active) with HOP-92. In addition, the GI50 in the assay on SK-MEL-2 is 0.0341 µM (active); with HT-29, 0.0125 µM (active); in the assay on HL-60, 0.0225 µM (active); in the assay with OVCAR-5, 0.0328 µM (active); with NCI-H23, 0.0497 µM (active); with MDA-MB-435 it was 0.0224 µM (active). For the same compound, the GI50 in the assay with UO-31 was 0.197 µM (active); in the assay on UACC-257, 0.0264 µM (active); with SNB-19, > 1 µM (active); in the assay on T47D it was 0.0525 µM (active); in the assay on OVCAR-8 it was 0.0399 µM (active).
`Cc1c(Cl)c(S(N)(=O)=O)cc(S(N)(=O)=O)c1NC(=O)c1ccc(Cl)cc1`: the GI50 with SW-620, in the assay with MOLT-4, in the assay with CCRF-CEM, with Malme-3M, in the assay on SNB-75 and in the assay on HOP-92 was > 100 µM (inactive) throughout. Moreover, the GI50 in the assay on SN12C, with HT-29, in the assay on HL-60, in the assay with OVCAR-5, in the assay on NCI-H23 and in the assay with MDA-MB-435 was > 100 µM (inactive) each time. Moreover, the GI50 in the assay with UO-31, in the assay with UACC-257, with SNB-19, with NCI-H522, in the assay on T47D and in the assay with OVCAR-8 was > 100 µM (inactive) in each case.
On to `Cc1cc(C)c2c(=O)n(CN3CCN(c4ccccc4)CC3)sc2n1`, for which the GI50 was 29.2 µM (inactive) in the assay with SW-620; 20.1 µM (inactive) in the assay on MOLT-4; 9.59 µM (inactive) in the assay on CCRF-CEM; 37.2 µM (inactive) with Malme-3M; 15.8 µM (inactive) with SNB-75; > 100 µM (inactive) with HOP-92. The GI50 in the assay with SN12C was 27 µM (inactive); with SK-MEL-2, 17.2 µM (inactive); in the assay on HT-29 it was 18.7 µM (inactive); in the assay with HL-60, 9.71 µM (inactive); in the assay with OVCAR-5 it was 27.7 µM (inactive); in the assay on NCI-H23, 29.2 µM (inactive). Also, the GI50 is 37.8 µM (inactive) in the assay with MDA-MB-435; 21.6 µM (inactive) with UO-31; 46.6 µM (inactive) with UACC-257; > 100 µM (inactive) with SNB-19; 14.4 µM (inactive) in the assay on NCI-H522; 15 µM (inactive) in the assay with T47D. The GI50 in the assay on OVCAR-8 is 35.4 µM (inactive).
`CC(ON1[C@](C)(c2ccccc2)CC[C@@]1(C)c1ccccc1)c1ccccc1` (some centres undefined): the GI50 was 37.9 µM (inactive) with SW-620; 16.2 µM (inactive) in the assay on MOLT-4; 22.7 µM (inactive) in the assay on CCRF-CEM; 32.5 µM (inactive) in the assay with Malme-3M; 25.9 µM (inactive) in the assay with SNB-75; 21.4 µM (inactive) in the assay on HOP-92. In addition, the GI50 was 45.6 µM (inactive) with SN12C; 20 µM (inactive) with SK-MEL-2; 31.2 µM (inactive) with HT-29; 23.6 µM (inactive) in the assay with HL-60; 41.1 µM (inactive) with OVCAR-5; 40 µM (inactive) with NCI-H23. The GI50 in the assay with MDA-MB-435 is 44.4 µM (inactive); in the assay with UO-31 it was 37.9 µM (inactive); in the assay with UACC-257, 28.3 µM (inactive); in the assay with SNB-19, 25.5 µM (inactive); in the assay on NCI-H522, 15.3 µM (inactive); in the assay on T47D, 24.1 µM (inactive). For the same compound, the GI50 with OVCAR-8 was 48.2 µM (inactive).
Regarding `Cn1ncc2c(Nc3cccc(Cl)c3)nc(Nc3cccc(Cl)c3)nc21`, the GI50 with SW-620 is 11.2 µM (inactive); with MOLT-4, 4.68 µM (inactive); in the assay with CCRF-CEM, 1.15 µM (inactive); with Malme-3M, 17.6 µM (inactive); in the assay with SNB-75, 7.93 µM (inactive); with HOP-92 it was 10.9 µM (inactive). The GI50 with SN12C is 20.7 µM (inactive); with SK-MEL-2 it was 14.9 µM (inactive); with HT-29 it was 3.87 µM (inactive); with HL-60 it was 7.94 µM (inactive); with OVCAR-5 it was 16.1 µM (inactive); in the assay on NCI-H23, 16.3 µM (inactive). The GI50 in the assay on MDA-MB-435 was 10.9 µM (inactive); in the assay on UO-31, 9.73 µM (inactive); in the assay with UACC-257, 8.73 µM (inactive); in the assay with SNB-19, 19.1 µM (inactive); in the assay with NCI-H522 it was 8.93 µM (inactive); in the assay with T47D, 10.2 µM (inactive). Moreover, in the assay on OVCAR-8, the GI50 is 10.9 µM (inactive).
